Assay results taken from patent US9828379B2 (priority 2013, dated 2017).

What was measured:
MAGL [1] = biological target: T1, MAGL (Mus musculus, UniProt O35678); assay: biochemical; conditions: mouse; in vitro competitive ABPP; read-out: Mouse (IC50 value, nM) MAGL
T1 sequence (O35678 1-303): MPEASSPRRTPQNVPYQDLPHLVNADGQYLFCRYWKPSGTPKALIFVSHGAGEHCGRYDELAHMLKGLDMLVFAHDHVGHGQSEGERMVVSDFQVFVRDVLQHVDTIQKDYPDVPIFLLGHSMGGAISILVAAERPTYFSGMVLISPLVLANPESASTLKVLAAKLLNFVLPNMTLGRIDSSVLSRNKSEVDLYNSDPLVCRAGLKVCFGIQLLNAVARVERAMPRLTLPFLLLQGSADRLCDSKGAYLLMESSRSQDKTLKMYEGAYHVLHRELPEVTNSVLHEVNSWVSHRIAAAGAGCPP

FAAH [2] = biological target: T2, FAAH (Mus musculus, UniProt O08914); assay: biochemical; conditions: in vitro competitive ABPP
T2 sequence (O08914 1-579): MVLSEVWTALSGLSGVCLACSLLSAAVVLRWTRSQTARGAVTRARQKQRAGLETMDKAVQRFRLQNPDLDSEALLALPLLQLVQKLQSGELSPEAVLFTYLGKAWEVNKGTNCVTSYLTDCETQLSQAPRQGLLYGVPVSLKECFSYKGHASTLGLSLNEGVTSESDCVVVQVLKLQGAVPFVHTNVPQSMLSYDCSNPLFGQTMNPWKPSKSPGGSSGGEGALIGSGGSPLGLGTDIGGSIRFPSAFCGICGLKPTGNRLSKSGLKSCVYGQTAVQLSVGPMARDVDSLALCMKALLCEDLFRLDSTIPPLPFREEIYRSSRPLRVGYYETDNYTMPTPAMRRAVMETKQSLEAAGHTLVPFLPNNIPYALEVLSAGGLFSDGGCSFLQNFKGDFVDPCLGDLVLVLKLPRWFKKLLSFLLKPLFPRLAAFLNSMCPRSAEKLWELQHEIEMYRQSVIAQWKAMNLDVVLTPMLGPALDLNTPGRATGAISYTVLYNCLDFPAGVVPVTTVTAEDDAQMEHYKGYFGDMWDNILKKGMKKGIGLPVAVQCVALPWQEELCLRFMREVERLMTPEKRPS

MAGL [3] = biological target: T1, MAGL; assay: In vitro competitive activity-based protein profiling (Table 2, % inhibition at 1 μM); format: biochemical; conditions: read-out: % Inhibition at 1 μM MAGL
Procedure: After 30 min, FP—Rh (1.0 μL, 50 μM in DMSO) was added and the mixture was incubated for another 30 min at 37° C. Reactions were quenched with SDS loading buffer (50 μL-4×) and run on SDS-PAGE.
Cell lysates were diluted with mock proteomes for use in competitive ABPP experiments.

ABHD6 [4] = biological target: T3, ABHD6 (Mus musculus, UniProt Q8R2Y0); assay: biochemical; conditions: in vitro competitive ABPP
T3 sequence (Q8R2Y0 1-336): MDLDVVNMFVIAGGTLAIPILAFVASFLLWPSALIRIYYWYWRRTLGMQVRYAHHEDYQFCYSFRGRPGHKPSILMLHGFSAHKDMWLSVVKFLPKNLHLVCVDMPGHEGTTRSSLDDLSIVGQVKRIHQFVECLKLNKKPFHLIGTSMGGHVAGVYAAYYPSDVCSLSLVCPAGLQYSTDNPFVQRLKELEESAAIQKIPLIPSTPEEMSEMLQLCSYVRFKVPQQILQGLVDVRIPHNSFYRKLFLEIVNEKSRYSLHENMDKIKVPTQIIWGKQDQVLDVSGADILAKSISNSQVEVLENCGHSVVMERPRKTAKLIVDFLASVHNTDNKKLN

FAAH [5] = biological target: T2, FAAH; assay: In vitro competitive activity-based protein profiling (Table 2, % inhibition at 1 μM); format: biochemical; conditions: read-out: % Inhibition at 1 μM FAAH
ABHD6 [6] = biological target: T3, ABHD6; assay: as above; format: biochemical; conditions: read-out: % Inhibition at 1 μM ABHD6
Mouse brain MAGL = biological target: T4, Mouse brain MAGL (Mus musculus, UniProt O35678); assay: Mouse brain proteomes from inhibitor treated mice (oral gavage, ABPP analysis); format: in vivo; conditions: p.o., sacrificed 4 h following administration
T4 construct: from tissue; host or cells: brain of wild-type C57Bl/6J mice dosed by oral gavage
T4 sequence (O35678 1-303): T1 sequence (O35678 1-303)

O=C(OC(C(F)(F)F)C(F)(F)F)N1CC2CN(Cc3ccc(Cl)cc3N3CCOC4CCCC43)CC2C1 (stereo not shown) [Example 4, 1,1,1,3,3,3-Hexafluoropropan-2-yl 5-(4-chloro-2-(hexahydrocyclopenta[b][1,4]oxazin-4(4aH)-yl)benzyl)hexahydropyrrolo[3,4-c]pyrrole-2(1H)-carboxylate]
IC50 (MAGL [1]): 100 to 1000 nM
IC50 (FAAH [2]): 1000 to 10000 nM
inhibition at 1 µM (MAGL [3]): > 75%
IC50 (ABHD6 [4]): 1000 to 10000 nM
inhibition at 1 µM (FAAH [5]): < 25%
inhibition at 1 µM (ABHD6 [6]): < 25%
inhibition at 5 mg/kg (Mouse brain MAGL): ≤ 25%

Cn1cc(CN2CC3CN(C(=O)OC(C(F)(F)F)C(F)(F)F)CC3C2)c(-c2ccccc2)n1 (stereo not shown) [Example 50, 1,1,1,3,3,3-Hexafluoropropan-2-yl 5-((1-methyl-3-phenyl-1H-pyrazol-4-yl)methyl)hexahydropyrrolo[3,4-c]pyrrole-2(1H)-carboxylate]
IC50 (MAGL [1]): < 100 nM
IC50 (FAAH [2]): 1000 to 10000 nM
inhibition at 1 µM (MAGL [3]): > 75%
IC50 (ABHD6 [4]): 1000 to 10000 nM
inhibition at 1 µM (FAAH [5]): < 25%
inhibition at 1 µM (ABHD6 [6]): 25 to 75%
inhibition at 5 mg/kg (Mouse brain MAGL): 25 to 75%

CCn1cc(CN2CC3CN(C(=O)OC(C(F)(F)F)C(F)(F)F)CC3C2)c(-c2ccccc2N2CCOCC2)n1 (stereo not shown) [Example 131, 1,1,1,3,3,3-hexafluoropropan-2-yl 5-([1-ethyl-3-[2-(morpholin-4-yl)phenyl]-1H-pyrazol-4-yl]methyl)-octahydropyrrolo[3,4-c]pyrrole-2-carboxylate]
IC50 (MAGL [1]): < 100 nM
IC50 (FAAH [2]): > 10000 nM
inhibition at 1 µM (MAGL [3]): > 75%
IC50 (ABHD6 [4]): 1000 to 10000 nM
inhibition at 1 µM (FAAH [5]): < 25%
inhibition at 1 µM (ABHD6 [6]): < 25%
inhibition at 5 mg/kg (Mouse brain MAGL): ≥ 75%

O=C(OC(C(F)(F)F)C(F)(F)F)N1CC2CN(Cc3cccc(Cl)c3N3CC[C@H](CF)C3)CC2C1 (stereo partly drawn) [Example 173, 1,1,1,3,3,3-hexafluoropropan-2-yl 5-([3-chloro-2-[(3S)-3-(fluoromethyl)pyrrolidin-1-yl]phenyl]methyl)-octahydropyrrolo[3,4-c]pyrrole-2-carboxylate]
IC50 (MAGL [1]): < 100 nM
IC50 (FAAH [2]): 1000 to 10000 nM
inhibition at 1 µM (MAGL [3]): > 75%
IC50 (ABHD6 [4]): > 10000 nM
inhibition at 1 µM (FAAH [5]): < 25%
inhibition at 1 µM (ABHD6 [6]): 25 to 75%
inhibition at 5 mg/kg (Mouse brain MAGL): 25 to 75%

O=C(OC(C(F)(F)F)C(F)(F)F)N1CC2CN(Cc3cccc(C(F)(F)F)c3N3CCOCC3)CC2C1 (stereo not shown) [Example 45, 1,1,1,3,3,3-Hexafluoropropan-2-yl 5-[[2-(morpholin-4-yl)-3-(trifluoromethyl)phenyl]methyl]-octahydropyrrolo[3,4-c]pyrrole-2-carboxylate]
IC50 (MAGL [1]): < 100 nM
IC50 (FAAH [2]): 1000 to 10000 nM
inhibition at 1 µM (MAGL [3]): > 75%
IC50 (ABHD6 [4]): 1000 to 10000 nM
inhibition at 1 µM (FAAH [5]): < 25%
inhibition at 1 µM (ABHD6 [6]): < 25%
inhibition at 5 mg/kg (Mouse brain MAGL): ≥ 75%

O=C(OC(C(F)(F)F)C(F)(F)F)N1CC2CN(Cc3ccc(Cl)cc3N3CCC(C(=O)N4CCCC4)CC3)CC2C1 (stereo not shown) [Example 37, 1,1,1,3,3,3-Hexafluoropropan-2-yl 5-[(4-chloro-2-[4-[(pyrrolidin-1-yl)carbonyl]piperidin-1-yl]phenyl)methyl]-octahydropyrrolo[3,4-c]pyrrole-2-carboxylate]
IC50 (MAGL [1]): < 100 nM
IC50 (FAAH [2]): 1000 to 10000 nM
inhibition at 1 µM (MAGL [3]): > 75%
IC50 (ABHD6 [4]): 1000 to 10000 nM
inhibition at 1 µM (FAAH [5]): 25 to 75%
inhibition at 1 µM (ABHD6 [6]): < 25%
inhibition at 5 mg/kg (Mouse brain MAGL): ≤ 25%

O=C(OC(C(F)(F)F)C(F)(F)F)N1CC2CN(Cc3cccc(Cl)c3N3CCC4(CCOC4)C3)CC2C1 (stereo not shown) [Example 42, 1,1,1,3,3,3-Hexafluoropropan-2-yl 5-[(3-chloro-2-[2-oxa-7-azaspiro[4.4]nonan-7-yl]phenyl)methyl]-octahydropyrrolo[3,4-c]pyrrole-2-carboxylate]
IC50 (MAGL [1]): < 100 nM
IC50 (FAAH [2]): 1000 to 10000 nM
inhibition at 1 µM (MAGL [3]): > 75%
IC50 (ABHD6 [4]): 1000 to 10000 nM
inhibition at 1 µM (FAAH [5]): < 25%
inhibition at 1 µM (ABHD6 [6]): < 25%
inhibition at 5 mg/kg (Mouse brain MAGL): 25 to 75%

CC(=O)N1CC2(CCN(c3ccccc3CN3CC4CN(C(=O)OC(C(F)(F)F)C(F)(F)F)CC4C3)C2)C1 (stereo not shown) [Example 137, 1,1,1,3,3,3-hexafluoropropan-2-yl 5-[(2-[2-acetyl-2,6-diazaspiro[3.4]octan-6-yl]phenyl)methyl]-octahydropyrrolo[3,4-c]pyrrole-2-carboxylate]
IC50 (MAGL [1]): < 100 nM
IC50 (FAAH [2]): 1000 to 10000 nM
inhibition at 1 µM (MAGL [3]): > 75%
IC50 (ABHD6 [4]): 1000 to 10000 nM
inhibition at 1 µM (FAAH [5]): < 25%
inhibition at 1 µM (ABHD6 [6]): < 25%
inhibition at 5 mg/kg (Mouse brain MAGL): ≤ 25%

CCn1cc(CN2CC3CN(C(=O)OC(C(F)(F)F)C(F)(F)F)CC3C2)c(-c2ccc(N3CCCC3)cc2)n1 (stereo not shown) [Example 67, 1,1,1,3,3,3-Hexafluoropropan-2-yl 5-([1-ethyl-3-[4-(pyrrolidin-1-yl)phenyl]-1H-pyrazol-4-yl]methyl)-octahydropyrrolo[3,4-c]pyrrole-2-carboxylate]
IC50 (MAGL [1]): < 100 nM
IC50 (FAAH [2]): 1000 to 10000 nM
inhibition at 1 µM (MAGL [3]): > 75%
IC50 (ABHD6 [4]): 1000 to 10000 nM
inhibition at 1 µM (FAAH [5]): < 25%
inhibition at 1 µM (ABHD6 [6]): < 25%
inhibition at 5 mg/kg (Mouse brain MAGL): 25 to 75%

CCn1ncc(CN2CC3CN(C(=O)OC(C(F)(F)F)C(F)(F)F)CC3C2)c1C(=O)NCCc1cccc(Cl)c1 (stereo not shown) [Example 180, 1,1,1,3,3,3-hexafluoropropan-2-yl 5-((5-((3-chlorophenethyl)carbamoyl)-1-ethyl-1H-pyrazol-4-yl)methyl)hexahydropyrrolo[3,4-c]pyrrole-2(1H)-carboxylate]
IC50 (MAGL [1]): < 100 nM
IC50 (FAAH [2]): > 10000 nM
inhibition at 1 µM (MAGL [3]): > 75%
IC50 (ABHD6 [4]): 1000 to 10000 nM
inhibition at 1 µM (FAAH [5]): < 25%
inhibition at 1 µM (ABHD6 [6]): < 25%
inhibition at 5 mg/kg (Mouse brain MAGL): ≤ 25%

CCn1cc(CN2CC3CN(C(=O)OC(C(F)(F)F)C(F)(F)F)CC3C2)c(-c2cccc(N3CCCCC3)c2)n1 (stereo not shown) [Example 132, 1,1,1,3,3,3-hexafluoropropan-2-yl 5-([1-ethyl-3-[3-(piperidin-1-yl)phenyl]-1H-pyrazol-4-yl]methyl)-octahydropyrrolo[3,4-c]pyrrole-2-carboxylate]
IC50 (MAGL [1]): < 100 nM
IC50 (FAAH [2]): 1000 to 10000 nM
inhibition at 1 µM (MAGL [3]): > 75%
IC50 (ABHD6 [4]): 1000 to 10000 nM
inhibition at 1 µM (FAAH [5]): < 25%
inhibition at 1 µM (ABHD6 [6]): < 25%
inhibition at 5 mg/kg (Mouse brain MAGL): ≤ 25%

CCn1cc(CN2CC3CN(C(=O)OC(C(F)(F)F)C(F)(F)F)CC3C2)c(-c2ccccc2N2CCCCC2)n1 (stereo not shown) [Example 130, 1,1,1,3,3,3-hexafluoropropan-2-yl 5-([1-ethyl-3-[2-(piperidin-1-yl)phenyl]-1H-pyrazol-4-yl]methyl)-octahydropyrrolo[3,4-c]pyrrole-2-carboxylate]
IC50 (MAGL [1]): < 100 nM
IC50 (FAAH [2]): > 10000 nM
inhibition at 1 µM (MAGL [3]): > 75%
IC50 (ABHD6 [4]): 1000 to 10000 nM
inhibition at 1 µM (FAAH [5]): < 25%
inhibition at 1 µM (ABHD6 [6]): < 25%
inhibition at 5 mg/kg (Mouse brain MAGL): ≤ 25%

Cc1c(CN2CC3CN(C(=O)OC(C(F)(F)F)C(F)(F)F)CC3C2)cccc1N1CCOCC1 (stereo not shown) [Example 47, 1,1,1,3,3,3-Hexafluoropropan-2-yl 5-[[2-methyl-3-(morpholin-4-yl)phenyl]methyl]-octahydropyrrolo[3,4-c]pyrrole-2-carboxylate]
IC50 (MAGL [1]): < 100 nM
IC50 (FAAH [2]): 1000 to 10000 nM
inhibition at 1 µM (MAGL [3]): > 75%
IC50 (ABHD6 [4]): 1000 to 10000 nM
inhibition at 1 µM (FAAH [5]): 25 to 75%
inhibition at 1 µM (ABHD6 [6]): 25 to 75%
inhibition at 5 mg/kg (Mouse brain MAGL): ≥ 75%
